Laboratory results as given in publication PMC6150412, “Design, Synthesis, and Evaluation of Novel Phenolic Acid/Dipeptide/Borneol Hybrids as Potent Angiotensin Converting Enzyme (ACE) Inhibitors with Anti-hypertension Activity” (Molecules : A Journal of Synthetic Chemistry and Natural …, 2017).

Columns and labels:
[1] = system: spontaneously hypertensive rats (SHRs); experiment: Therapeutic antihypertensive test, 7 consecutive days oral treatment, tail-cuff BP; assay type: in vivo, rat; conditions: for Maximum antihypertensive effect compared with lisinopril (20 mg/kg/day): 100 mg/kg daily, oral, 7 days; for Blood pressure during repeated treatment: 100 mg/kg, Po. 7 days
Procedure: (§1) All the experiments were approved by the Institutional Animal Ethics Committee of Northwest University. Experiments were carried out on spontaneously hypertension rats (SHRs) that were 9–10 weeks old and weighed 200–220 g. SHRs treated with normal saline were used as controls. Lisinopril was used as a standard drug. Blood pressure (BP) was recorded automatically every day by the indirect tail-cuff method using an electrosphygmomanometer (BP-2010A Storage Pressure Meter). […] The BP were measured before and 0.5, 1, 2, 3, 4, 5 and 6 h after a single dose of intragastrical administration of active compounds.
(§2) Figure 4 (A,B), the acute antihypertensive activity of compounds 7a and 7g in spontaneously hypertension rats (SHRs) for single dose administration (dosing time: 0 min); (C) the therapeutic antihypertensive activity of compounds 7a and 7g in SHRs for 7 days treatment (dosing time: 0 day; blood pressure (BP) measured time: 9:30–11:30 am). Data are presented as mean ± SEM, n = 6. The BP was determined with a BP-2010A Storage Pressure Meter. This system measures BP by recording the cuff pressure at which the interrupted blood flow returns to the tail. Before drug administration, training consisted of five sessions over 3 days. The SHRs were placed into a thermostatically controlled Lucite box of the Visitech system BP2010A, and heated on a heated pad maintained at 37 °C for 2 min before BP measurement started. The tail root of SHR was surrounded by an inflatable tubular sleeve, and a pulse electron detector was placed in the root of the tails. Then BP was measured after the computer provided a stable signal. The BP for the session was accepted as the average of five BP readings that were within 10 mm Hg. The average BP values were calculated by employing the ANOVA method.

[2] = system: spontaneously hypertensive rats (SHRs); experiment: Acute antihypertensive test, single intragastric dose, tail-cuff BP; assay type: in vivo, rat; conditions: for Duration of antihypertensive activity / Reduction in blood pressure (systolic arterial pressure) compared with lisinopril: single oral dose; for Reduction in blood pressure (systolic arterial pressure) compared with lisinopril: same molar dose as lisinopril
Procedure: as §1, §2

[3] = molecular target: T1, angiotensin converting enzyme (ACE) (Oryctolagus cuniculus, UniProt P12822); experiment: In vitro ACE inhibition assay (hippuric acid release from HHL); assay type: biochemical; conditions: HHL substrate, pH 8.3, 37 °C, 15 min; five concentrations 0.01–10 µM; read-out: ACE-inhibitory activity IC50
T1 construct: purchased Sigma-aldrich, St. Louis, MO, USA A-6778
T1 sequence (P12822 34-1310): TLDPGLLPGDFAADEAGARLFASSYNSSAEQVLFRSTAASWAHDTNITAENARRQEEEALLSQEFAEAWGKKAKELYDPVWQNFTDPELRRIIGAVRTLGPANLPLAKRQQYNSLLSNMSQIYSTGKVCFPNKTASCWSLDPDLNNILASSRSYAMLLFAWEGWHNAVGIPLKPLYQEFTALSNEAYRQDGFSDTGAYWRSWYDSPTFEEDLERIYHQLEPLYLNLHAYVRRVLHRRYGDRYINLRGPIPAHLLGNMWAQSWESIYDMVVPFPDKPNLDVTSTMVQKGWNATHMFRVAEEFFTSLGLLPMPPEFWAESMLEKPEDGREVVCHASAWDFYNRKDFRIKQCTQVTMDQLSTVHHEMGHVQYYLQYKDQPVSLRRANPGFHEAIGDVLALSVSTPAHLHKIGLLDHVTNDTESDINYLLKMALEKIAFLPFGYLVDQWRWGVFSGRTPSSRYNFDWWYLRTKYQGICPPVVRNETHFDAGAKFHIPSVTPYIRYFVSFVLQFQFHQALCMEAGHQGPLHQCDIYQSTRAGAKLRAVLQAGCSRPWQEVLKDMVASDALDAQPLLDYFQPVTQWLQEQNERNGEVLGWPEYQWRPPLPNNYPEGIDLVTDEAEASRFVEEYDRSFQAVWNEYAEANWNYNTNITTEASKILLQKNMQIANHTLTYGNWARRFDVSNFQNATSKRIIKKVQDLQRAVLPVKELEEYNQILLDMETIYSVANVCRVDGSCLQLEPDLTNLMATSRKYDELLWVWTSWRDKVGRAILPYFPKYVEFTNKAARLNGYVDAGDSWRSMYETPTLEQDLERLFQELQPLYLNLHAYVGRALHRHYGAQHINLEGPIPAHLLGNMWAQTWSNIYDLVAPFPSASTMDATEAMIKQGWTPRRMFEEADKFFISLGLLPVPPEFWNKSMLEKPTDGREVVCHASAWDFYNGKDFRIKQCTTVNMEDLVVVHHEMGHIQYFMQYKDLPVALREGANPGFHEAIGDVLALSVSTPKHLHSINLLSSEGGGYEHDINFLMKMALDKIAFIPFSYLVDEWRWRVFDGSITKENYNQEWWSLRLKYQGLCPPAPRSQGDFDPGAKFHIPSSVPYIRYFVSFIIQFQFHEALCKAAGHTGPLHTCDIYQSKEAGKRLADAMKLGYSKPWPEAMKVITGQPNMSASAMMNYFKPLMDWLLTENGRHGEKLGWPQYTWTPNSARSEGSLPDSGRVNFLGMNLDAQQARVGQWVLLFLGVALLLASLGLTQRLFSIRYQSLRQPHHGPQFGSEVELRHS
Procedure: The in vitro ACE-inhibitory activity of the newly synthesized compounds was evaluated using ACE inhibition assay (Sigma-aldrich, St. Louis, MO, USA, No. A-6778). The experiments were carried out for all the designed compounds (7a–7h), for ACE-inhibitory activity at five different concentrations (0.01–10 µM). Lisinopril, a well-known ACE inhibitor drug, was used as standard for comparison with the inhibitory activity of synthesized compounds. The ACE-inhibitory activity can be calculated by the following equation: ACE-inhibitory activity (inhibition rate %) = [(Ablank1 − Asample)/(Ablank1 − Ablank2)] × 100, where blank 1: Positive control (without ACE inhibition) and blank 2: Reagent blank. Then we measured and calculated the IC50 values of the designed compounds (7a–7h).
The preliminary biological investigations were conducted in vitro using the ACE-inhibition assay. […] That is, the activity of these compounds gradually declined when the size of the amino acid side chain increased. Besides, the influence of phenolic acids on ACE-inhibitory activity was more obvious following the order: protocatechuic acid > ferulic acid > gallic acid > 3,4-dihydroxybenzene acid. That is, substituents in positions 3 and 4 in the benzene ring are beneficial to the increase of ACE-inhibitory activity. At the same time, the shorter the amino side chain in phenolic acids, the better the ACE-inhibitory activity.

SMILES	IC50 [3] [µM]	Maximum antihypertensive effect compared with lisinopril (20 mg/kg/day) [1]	Blood pressure during repeated treatment [1]	Onset of antihypertensive activity after oral treatment [2] [h]	Duration of antihypertensive activity [2]	Reduction in blood pressure (systolic arterial pressure) compared with lisinopril [2]
CC(C)[C@H](NC(=O)Cc1ccc(O)c(O)c1)C(=O)N1CCC[C@H]1C(=O)OC1CC2CCC1(C)C2(C)C (stereo partly shown) [Compound 7b]	13.9 ± 1.61					
CC(C)[C@H](NC(=O)c1cc(O)c(O)c(O)c1)C(=O)N1CCC[C@H]1C(=O)OC1CC2CCC1(C)C2(C)C (stereo partly shown) [Compound 7d]	13.5 ± 2.02					
CC(C)C[C@H](NC(=O)Cc1ccc(O)c(O)c1)C(=O)N1CCC[C@H]1C(=O)OC1CC2CCC1(C)C2(C)C (stereo partly shown) [Compound 7f]	14 ± 1.84					
NCCCC[C@H](N[C@@H](CCc1ccccc1)C(=O)O)C(=O)N1CCC[C@H]1C(=O)O [Lisinopril, reference compound]	< 0.01					

Further molecules by falling IC50 [3], results first:

IC50 [3] [µM]	SMILES	Maximum antihypertensive effect compared with lisinopril (20 mg/kg/day) [1]	Blood pressure during repeated treatment [1]	Onset of antihypertensive activity after oral treatment [2] [h]	Duration of antihypertensive activity [2]	Reduction in blood pressure (systolic arterial pressure) compared with lisinopril [2]
13.2 ± 2.47	CC(C)C[C@H](NC(=O)c1cc(O)c(O)c(O)c1)C(=O)N1CCC[C@H]1C(=O)OC1CC2CCC1(C)C2(C)C (stereo partly shown) [Compound 7h]					
11.9 ± 1.82	COc1cc(/C=C/C(=O)N[C@H](C(=O)N2CCC[C@H]2C(=O)OC2CC3CCC2(C)C3(C)C)C(C)C)ccc1O (stereo partly shown) [Compound 7c]					
10.6 ± 1.72	CC(C)C[C@H](NC(=O)c1ccc(O)c(O)c1)C(=O)N1CCC[C@H]1C(=O)OC1CC2CCC1(C)C2(C)C (stereo partly shown) [Compound 7e]					
6.88 ± 0.85	COc1cc(/C=C/C(=O)N[C@@H](CC(C)C)C(=O)N2CCC[C@H]2C(=O)OC2CC3CCC2(C)C3(C)C)ccc1O (stereo partly shown) [Compound 7g]	approximately equivalent to that of lisinopril	decreased remarkably on the second day after oral administration	0.5	four	slightly better than that of lisinopril
6.76 ± 0.96	CC(C)[C@H](NC(=O)c1ccc(O)c(O)c1)C(=O)N1CCC[C@H]1C(=O)OC1CC2CCC1(C)C2(C)C (stereo partly shown) [Compound 7a]	approximately equivalent to that of lisinopril	decreased remarkably on the second day after oral administration	0.5	four	slightly better than that of lisinopril
